Test [1] has as its target T1, EP2 subtype of the human PGE2 receptor (Homo sapiens, UniProt P43116).
T1 construct: host or cells: cells in a cell culture plate
Nature of the test: cAMP antagonism test (test for antagonism in the presence of PGE2). It is filed as cell-based. Conditions: in presence of agonist PGE2. From the text:
(§1) The binding of PGE2 to the EP2 subtype of the human PGE2 receptor induces the activation of membrane adenylate cyclases and leads to the formation of cAMP. In the presence of the phosphodiesterase inhibitor IBMX, the cAMP accumulated through this stimulation and released by cell lysis is used in a competitive detection process. In this test, the cAMP in the lysate competes with cAMP-XL665 for the binding of an Eu cryptate-labeled anti-cAMP antibody. Here in the absence of cellular cAMP a maximal signal is produced, which is due to the coupling of this antibody to the cAMP-XL665 molecule. As a result, after excitation at 337 nm, a long-lasting emission signal at 665 nm (and at 620 nm) based on FRET (fluorescence resonance energy transfer) is produced. Both signals are measured in a suitable measuring instrument with time delay, i.e. after the background fluorescence has died away.
The substance solutions (0.75 μl) which contain 30% DMSO are placed in a test plate and are dissolved in 16 μl of a KRSB+IBMX stimulation solution (1× cancer Ringer bicarbonate buffer; Sigma-Aldrich # K-4002; including 750 μM 3-isobutyl-1-methylxanthine Sigma-Aldrich # 1-7018), then 15 μl of this are transferred into a media-free cell culture plate which has been washed with KRSB shortly beforehand.
After a 30-minute preincubation at room temperature (RT), 5 μl of a 4×PGE2 solution (11 nM) are added and incubated in the presence of the agonist for a further 60 mins at RT (volume: ˜20 μl), before the reaction is then stopped by addition of 5 μl of lysis buffer and the mixture is incubated for a further 20 mins at RT (volume: ˜25 μl). The cell lysate is then transferred onto an assay plate and assayed in accordance with the manufacturer's instructions (cyclic AMP kit Cisbio International # 62AMPPEC).

For test [2], the target named is T1, EP2 subtype of the human PGE2 receptor. Nature of the test: cellular agonism test (cAMP). Format: cell-based.
Source text: as §1
The substance solutions (0.75 μl) placed in a test plate and 30% DMSO are dissolved in 16 μl of a KRSB+IBMX stimulation solution (1× cancer Ringer bicarbonate buffer; Sigma-Aldrich # K-4002; including 750 μM 3-isobutyl-1-methylxanthine Sigma-Aldrich # 1-7018), then 15 μl of this are transferred into a media-free cell culture plate which has been washed with KRSB shortly beforehand. […]

The test system of test [3] is cumulus-ovum complexes (cumulus expansion). Nature of the test: Cumulus expansion test in vitro. The settings on record: competing with natural EP2 receptor agonist PGE2. Format: cell-based, mice. The protocol:
In immature female mice (strain: CD1 (ICR) von Charles River), folliculogenesis is induced at an age of 14-18 days by a single administration (intraperitoneal) of 10 I.U. of PMSG (Pregnant Mare Serum Gonadotropin; Sigma G-4877, Lot 68H0909). 47-50 hours after the injection, the ovaries are removed and the cumulus-ovum complexes removed. At this stage, the cumulus complex is not yet expanded.
The cumulus-ovum complexes are now incubated for 20-24 hours with prostaglandin E2 (PGE2) (1 μM), vehicle control (ethanol) or test substances. Medium: alpha-MEM medium with 0.1 mM IBMX, pyruvate (0.23 mM) glutamine (2 mM), pen/strep 100 IU/ml pen. and 100 μg/ml strep.) and HSA (8 mg/ml)). The cumulus expansion is then assessed by classification into four stages (after Vanderhyden et al. Dev Biol. 1990 August; 140(2):307-317).

T1 sequence (P43116 whole entry): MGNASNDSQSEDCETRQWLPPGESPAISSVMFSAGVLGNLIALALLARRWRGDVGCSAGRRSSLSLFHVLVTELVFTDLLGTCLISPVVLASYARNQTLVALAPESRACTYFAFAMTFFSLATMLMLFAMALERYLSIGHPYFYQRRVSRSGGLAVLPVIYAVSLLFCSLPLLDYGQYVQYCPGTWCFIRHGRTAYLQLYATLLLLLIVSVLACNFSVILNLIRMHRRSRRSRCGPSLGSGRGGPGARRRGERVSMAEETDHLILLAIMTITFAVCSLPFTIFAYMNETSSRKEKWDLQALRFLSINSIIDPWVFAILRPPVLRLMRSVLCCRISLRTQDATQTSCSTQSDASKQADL

In the case of `CSc1ccc(NC(=S)NC2CCN(c3ccnc4cc(Cl)ccc34)CC2)cc1` [Example 1, 1-[1-(7-chloro-quinolin-4-yl)-piperidin-4-yl]-3-(4-methylsulfanyl-phenyl)-thiourea], the IC50 in test [1] came to 2.7 µM.

On to `CSc1ccccc1NC(=S)NC1CCN(c2ccnc3cc(Cl)ccc23)CC1` [Example 14, 1-(1-(7-chloro-quinolin-4-yl)-piperidin-4-yl)-3-(2-methylsulfanyl-phenyl)-thiourea], for which, in test [1], the IC50 came out at 3.4 µM.

Consider `S=C(Nc1ccccc1Br)NC1CCN(c2ccnc3cc(Cl)ccc23)CC1` [Example 8, 1-(2-bromo-phenyl)-3-(1-(7-chloro-quinolin-4-yl)-piperidin-4-yl)-thiourea], for which the IC50 in test [1] stood at 3.8 µM. Also, the “activity in the cellular agonism test” value in test [2] was “no inhibition”. For the same compound, the “suppression of cumulus expansion” value in test [3] (at a 10 times lower concentration than AH 6809 (100-200 μM)) is given as 20%.

Take `CC(C)Oc1ccc2c(=O)c3cc(C(=O)O)ccc3oc2c1` [AH 6809, reference compound]: the “suppression of the expansion of the cumulus” value in test [3] (at a concentration of 100-200 μM) is reported as “ca. 30%”.

Source of the values: patent US20080125435A1, “1-(Het)aryl-3-[hetaryl-piperidin-4-yl]-thioureas as modulators of the EP2 receptor” (priority 2006, published 2008).
